Test results from paper PMC12720098, “Prolintane analogs as hybrid monoamine transporter ligands: Structural determinants and species differences” (The Journal of Biological Chemistry, 2025).
Read-outs that look alike come from different tables or passages of the source.

Key:
[1] = target: T1, rDAT (Rattus norvegicus, UniProt P23977); assay: Uptake inhibition assay ([3H]dopamine) in rat brain synaptosomes; assay type: biochemical; settings: for DAT/SERT ratio: rat isoform (r), 1/DAT IC50 / 1/SERT IC50
T1 construct: As a means to evaluate transporter activity of prolintane analogs in native tissue preparation; from tissue; host or cells: rat caudate synaptosomes
T1 sequence (P23977 whole entry, canonical isoform): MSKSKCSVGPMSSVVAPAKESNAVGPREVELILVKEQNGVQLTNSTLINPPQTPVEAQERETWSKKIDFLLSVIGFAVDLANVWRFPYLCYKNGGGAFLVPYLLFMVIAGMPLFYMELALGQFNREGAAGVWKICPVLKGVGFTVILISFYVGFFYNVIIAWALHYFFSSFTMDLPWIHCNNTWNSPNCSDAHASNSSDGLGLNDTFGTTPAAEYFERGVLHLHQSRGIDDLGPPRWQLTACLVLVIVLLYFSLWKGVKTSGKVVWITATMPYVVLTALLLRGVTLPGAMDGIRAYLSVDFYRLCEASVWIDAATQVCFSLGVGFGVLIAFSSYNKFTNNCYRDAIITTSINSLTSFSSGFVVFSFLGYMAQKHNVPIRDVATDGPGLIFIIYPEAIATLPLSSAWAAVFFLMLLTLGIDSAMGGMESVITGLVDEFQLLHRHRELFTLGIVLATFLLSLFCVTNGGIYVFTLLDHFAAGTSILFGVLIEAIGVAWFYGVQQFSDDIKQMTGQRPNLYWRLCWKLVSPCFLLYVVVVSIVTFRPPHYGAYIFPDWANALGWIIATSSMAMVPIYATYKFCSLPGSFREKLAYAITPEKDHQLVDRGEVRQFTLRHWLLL
Procedure: Rats were killed by CO2 narcosis and decapitated, then synaptosomes were prepared from brains using standard procedures. In brief, synaptosomes were prepared from caudate tissue for rat DAT (rDAT) assays, or from whole brain minus caudate and cerebellum for rat NET (rNET) and rat SERT (rSERT) assays. Brain tissue was homogenized in ice-cold 10% sucrose followed by centrifugation at 1000g for 10 min. The resulting supernatant containing crude synaptosomes was kept on ice until use in uptake or release procedures. Uptake inhibition and release assays were carried out as previously described ([62], [63]).
For uptake inhibition assays, 5 nM [^3H]dopamine, 10 nM [^3H]norepinephrine, or 5 nM [^3H]5-HT was used as the radiolabeled transmitter for rDAT, rNET, or rSERT, respectively. To optimize uptake for a single transporter, unlabeled blockers were included that prevented uptake of [^3H]transmitter by competing transporters: 50 nM GBR 12935 was added to NET and SERT assays to block DAT, 100 nM nomifensine was added to SERT assays to block NET. Uptake assays were initiated by adding 100 μl of tissue to 900 μl Krebs-phosphate buffer (126 mM NaCl, 2.4 mM KCl, 0.83 mM CaCl2, 0.8 mM MgCl2, 0.5 mM KH2PO4, 0.5 mM Na2SO4, 11.1 mM glucose, 0.05 mM pargyline, 1 mg/ml bovine serum albumin, and 1 mg/ml ascorbic acid, pH 7.4) containing test drug and [^3H]transmitter. Uptake assays were terminated by rapid vacuum filtration, and retained radioactivity was quantified with liquid scintillation counting.
Effects of test drugs on release and uptake inhibition were analyzed by nonlinear regression using GraphPad Prism 9 (GraphPad Scientific, San Diego, CA, USA). Concentration–response values for the uptake inhibition and release were fit to the equation, Y(x)=Ymin+Ymax−Ymin/1+10^((LogP50−LogX)·n) , where x is the concentration of the compound tested, Y(x) is the response measured, Ymax is the maximal response, P50 is either IC50 (the concentration that yields half-maximal uptake inhibition response) or EC50 (the concentration that yields half-maximal release response), and n is the Hill slope parameter.

[2] = target: T2, hDAT (Homo sapiens, UniProt Q01959); assay: Uptake inhibition assay ([3H]DA) in transfected HEK293 cells; assay type: cell-based; settings: for DAT/SERT ratio: human isoform (h), 1/DAT IC50 / 1/SERT IC50
T2 construct: expressed in transfected cells
T2 sequence (Q01959 whole entry, canonical isoform): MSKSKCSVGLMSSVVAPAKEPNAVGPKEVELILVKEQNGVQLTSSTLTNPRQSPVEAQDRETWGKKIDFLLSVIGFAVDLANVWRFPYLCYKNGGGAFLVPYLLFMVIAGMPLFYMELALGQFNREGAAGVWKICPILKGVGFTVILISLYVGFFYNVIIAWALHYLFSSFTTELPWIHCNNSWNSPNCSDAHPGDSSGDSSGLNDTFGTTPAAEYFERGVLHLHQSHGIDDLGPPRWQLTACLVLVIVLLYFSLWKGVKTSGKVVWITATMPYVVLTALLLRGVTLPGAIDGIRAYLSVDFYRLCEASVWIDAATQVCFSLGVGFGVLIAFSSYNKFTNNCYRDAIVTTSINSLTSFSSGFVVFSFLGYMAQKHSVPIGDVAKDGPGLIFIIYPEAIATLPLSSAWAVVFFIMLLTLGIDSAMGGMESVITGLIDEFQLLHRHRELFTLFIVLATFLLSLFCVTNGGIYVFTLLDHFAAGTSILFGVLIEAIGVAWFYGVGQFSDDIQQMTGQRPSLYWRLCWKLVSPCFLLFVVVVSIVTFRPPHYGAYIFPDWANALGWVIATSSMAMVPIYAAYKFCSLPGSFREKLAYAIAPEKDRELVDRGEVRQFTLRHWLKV
Procedure: HEK293 cells stably expressing human monoamine transporters hSERT, hDAT or hNET were seeded into poly-D-lysine (PDL) coated 96-well plates with a density of approximately 36,000 cells per well 1 day prior to experiments. A day after seeding, the cell medium was replaced with 200 μl Krebs-HEPES-buffer (KHB; 120 mM NaCl, 3 mM KCl, 2 mM CaCl2·2H2O, 2 mM MgCl2·6H2O, 20 mM D-glucose, pH = 7.3). The test drugs were initially dissolved in Milli-Q H2O or dimethyl sulfoxide (DMSO) at a concentration of 10 to 100 mM. Then, cells were treated with the respective concentration of the test drug diluted in KHB for 5 min as a pre-incubation step. Subsequently, in the uptake step, the solution was replaced with 50 μl/well diluted drug solution and tritiated substrate (hDAT: 0.1 μM [^3H]DA; hNET: 0.02 μM [^3H]MPP^+; hSERT: 0.1 μM [^3H]5-HT) for 1 min (hDAT, hSERT) or 3 min (hNET). After incubation, cells were immediately washed with 200 μl KHB to stop uptake. Uptake was indirectly measured by quantifying beta emission with liquid scintillation counting (Wallac 1450 MicroBeta TriLux Liquid Scintillation Counter & Lumi; GMI). Therefore, 200 μl Ultima Gold XR scintillation cocktail (PerkinElmer, MA, USA) was added to each well.
(§1) Half-maximal inhibitory concentrations (IC50) were obtained from fitting a sigmoidal dose–response ( Y=Bottom+Top−Bottom/1+10^((LogIC50−X)·HillSlope) ) in GraphPad Prism 10.3.1 (GraphPad Software Inc.). Uptake inhibition data were evaluated by one-way ANOVA followed by Tukey's multiple comparisons test. Release data were analyzed using a two-way ANOVA (batch release) or a mixed-effects model with Geisser-Greenhouse correction (time-dependent traces) employing Šidák correction for comparing differences between compounds with or without the addition of monensin.

[3] = target: T3, hSERT (Homo sapiens, UniProt P31645); assay type: cell-based; settings: for Mean diff, hSERT efflux ± Mon (Šídák's multiple comparisons test): drug alone vs drug + monensin (Mon); for hSERT efflux ± Mon, mean diff: superfusion
T3 construct: expressed in transfected cells
T3 sequence (P31645 whole entry, the tested form may be a part): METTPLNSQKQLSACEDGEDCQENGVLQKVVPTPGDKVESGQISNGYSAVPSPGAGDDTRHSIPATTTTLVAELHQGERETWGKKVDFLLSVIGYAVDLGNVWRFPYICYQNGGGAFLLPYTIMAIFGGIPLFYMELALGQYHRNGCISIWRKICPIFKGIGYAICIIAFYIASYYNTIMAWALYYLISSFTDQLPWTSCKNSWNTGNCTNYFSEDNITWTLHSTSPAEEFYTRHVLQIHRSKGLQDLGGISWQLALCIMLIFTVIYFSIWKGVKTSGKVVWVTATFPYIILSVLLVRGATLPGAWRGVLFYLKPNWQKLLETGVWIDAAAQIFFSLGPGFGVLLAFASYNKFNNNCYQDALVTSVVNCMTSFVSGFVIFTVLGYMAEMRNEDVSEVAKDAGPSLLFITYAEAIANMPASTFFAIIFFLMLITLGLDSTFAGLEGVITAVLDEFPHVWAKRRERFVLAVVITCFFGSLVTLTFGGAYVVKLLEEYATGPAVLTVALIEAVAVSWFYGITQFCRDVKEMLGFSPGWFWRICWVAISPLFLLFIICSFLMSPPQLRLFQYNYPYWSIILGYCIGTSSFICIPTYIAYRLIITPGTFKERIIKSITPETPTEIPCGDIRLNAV
Procedure: A day prior to the experiment, HEK293 cells stably expressing hSERT or rat SERT (rSERT) were seeded at a density of 100,000 cells per channel into 6 channel flow ibidi slides (Gräfelfing, Germany). On the day of the experiments, cells were preloaded with 0.1 μM [^3H]5-HT at 37 °C, 5% CO2 for 20 min. Subsequently, the slides were transferred to the superfusion apparatus ([59]). Cells were then washed with KHB for 15 min under a constant flow of 0.5 ml/min. Fractions were collected every 2 min in 8 ml vials containing 2 ml scintillation cocktail. Collection began with three baseline fractions using KHB, followed by four additional basal release fractions with KHB, either with or without 10 μM monensin. […] To assess residual radioactivity within the cells, they were lysed with 1% sodium dodecyl sulfate (SDS), and three final fractions were obtained. The measured tritiated substrate in each fraction was expressed as a percentage of the initial tritiated substrate present at the start of that fraction.
as §1

[4] = target: T3, hSERT; assay type: cell-based; settings: batch release, % efflux of total uptake, compounds approximately at IC50 concentration
Procedure: Batch release assays were performed as described previously ([44]). In brief, HEK293 cells stably expressing monoamine transporters were seeded similar to the procedure used for uptake inhibition assays. A day after seeding cells were pre-loaded with 50 μl/well 0.015 μM [^3H]MPP^+ (hDAT, hNET), or 0.08 μM [^3H]5-HT (hSERT) for 20 min at 37 °C. Then cells were washed four times for 3 to 4 min each and further incubated with KHB or KHB + monensin. After 10 min of incubation, two (screening) to four (full traces; hSERT) 2 min incubations were performed to establish a baseline release without substance. […] Each fraction was transferred to an empty well in the 96-well plate. For screening, a known inhibitor (hDAT, hNET: 50 μM GBR12909) and releaser (hDAT, hNET: 10 μM S-(+)-amphetamine) were used as controls. Ultima Gold XR scintillation cocktail was added to the remaining cells, and each well contained a release fraction. The counted radioactivity in the respective fraction was expressed as a percentage of total radioactivity at the start of the fraction.
as §1

Compound | IC50 [1] [nM] | DAT/SERT ratio [1] | IC50 [2] [nM] | DAT/SERT ratio [2] | Mean diff, hSERT efflux ± Mon (Šídák's multiple comparisons test) ([3]; Row 1 (time fraction)) | Mean diff, hSERT efflux ± Mon (Šídák's multiple comparisons test) ([3]; Row 2 (time fraction)) | Mean diff, hSERT efflux ± Mon (Šídák's multiple comparisons test) ([3]; Row 3 (time fraction)) | Mean diff, hSERT efflux ± Mon (Šídák's multiple comparisons test) ([3]; Row 4 (time fraction)) | Mean diff, hSERT efflux ± Mon (Šídák's multiple comparisons test) ([3]; Row 5 (time fraction)) | Mean diff, hSERT efflux ± Mon (Šídák's multiple comparisons test) ([3]; Row 6 (time fraction)) | Mean diff, hSERT efflux ± Mon (Šídák's multiple comparisons test) ([3]; Row 7 (time fraction)) | Mean diff, hSERT efflux ± Mon (Šídák's multiple comparisons test) ([3]; Row 8 (time fraction)) | Mean diff, hSERT efflux ± Mon (Šídák's multiple comparisons test) ([3]; Row 9 (time fraction)) | Mean diff, hSERT efflux ± Mon (Šídák's multiple comparisons test) ([3]; Row 10 (time fraction)) | Mean diff, hSERT efflux ± Mon (Šídák's multiple comparisons test) ([3]; Row 11 (time fraction)) | Mean diff, hSERT efflux ± Mon (Šídák's multiple comparisons test) ([3]; Row 12 (time fraction)) | hSERT-mediated efflux, predicted (LS) mean diff, No mon - Mon [4] | further results
CCCC(Cc1ccccc1F)N1CCCC1 (centres unmarked) [2-Fluoroprolintane, 1-[1-(2-fluorophenyl)pentan-2-yl]pyrrolidine] | 117 ± 10 | 19 | 109 ± 19 | 323 | -0.05533 | -0.01811 | -0.031 | -0.05989 | -0.128 | -0.2267 | -0.3166 | -4.727 | -7.079 | -7.103 | -6.897 | -6.561 | -6.392 | 
CCCC(Cc1ccccc1C)N1CCCC1 (centres unmarked) [2-Methylprolintane, 1-[1-(2-methylphenyl)pentan-2-yl]pyrrolidine] | 324 ± 25 | 1 | 185 ± 65 | 23 |  |  |  |  |  |  |  |  |  |  |  |  | -4.459 | hSERT efflux ± Mon, mean diff ([3]; Row 1 (2 min fraction 1, baseline KHB)): 0.1289; hSERT efflux ± Mon, mean diff ([3]; Row 2 (2 min fraction 2, baseline KHB)): 0.1185; hSERT efflux ± Mon, mean diff ([3]; Row 3 (2 min fraction 3, baseline KHB)): 0.1694; hSERT efflux ± Mon, mean diff ([3]; Row 4 (fraction 4, KHB with or without 10 μM monensin)): 0.04832; hSERT efflux ± Mon, mean diff ([3]; Row 5 (fraction 5, KHB with or without 10 μM monensin)): -0.1068; hSERT efflux ± Mon, mean diff ([3]; Row 6 (fraction 6, KHB with or without 10 μM monensin)): -0.2079; hSERT efflux ± Mon, mean diff ([3]; Row 7 (fraction 7, KHB with or without 10 μM monensin)): -0.2202; hSERT efflux ± Mon, mean diff ([3]; Row 8 (fraction 8, compound at IC50 concentration)): -5.467; hSERT efflux ± Mon, mean diff ([3]; Row 9 (fraction 9, compound at IC50 concentration)): -7.92; hSERT efflux ± Mon, mean diff ([3]; Row 10 (fraction 10, compound at IC50 concentration)): -7.744; hSERT efflux ± Mon, mean diff ([3]; Row 11 (fraction 11, compound at IC50 concentration)): -7.355; hSERT efflux ± Mon, mean diff ([3]; Row 12 (fraction 12, compound at IC50 concentration)): -7.467
CCCC(Cc1cccc(F)c1)N1CCCC1 (centres unmarked) [3-Fluoroprolintane, 1-[1-(3-fluorophenyl)pentan-2-yl]pyrrolidine] | 58 ± 4 | 9 | 64 ± 20 | 210 | 0,003889 | -0,003000 | 0,02067 | -0,01133 | -0,1369 | -0,2296 | -0,2910 | -4,827 | -7,510 | -7,391 | -7,140 | -7,011 | -5.404 | 
CCCC(Cc1cccc(C)c1)N1CCCC1 (centres unmarked) [3-Methylprolintane, 1-[1-(3-methylphenyl)pentan-2-yl]pyrrolidine] | 111 ± 8 | 1.25 | 56 ± 11 | 53 | 0.05456 | 0.01844 | 0.02833 | 0.07733 | -0.1496 | -0.229 | -0.329 | -4.546 | -6.038 | -6.018 | -5.904 | -5.776 | -5.6 | 
